The source of these data is patent US8278460B2, “Substituted benzimidazoles” (Concert Pharmaceuticals, Inc., priority 2009, dated 2012).

For series [1], the system named is inflammatory and neuropathic pain-like behaviors in animal models. As to conditions: cited from earlier work.
Series [2] is described as follows: Metabolic stability in human liver microsomes. The following applies: for % Parent Remaining (30 min) Ave ± SD: 2.0 mg/mL human liver microsomes, 2 mM NADPH, pH 7.4, 37° C., average of 3 experiments. The format is in vitro ADME. The procedure:
Human liver microsomes (20 mg/mL) were available from Xenotech, LLC (Lenexa, Kans.). β-nicotinamide adenine dinucleotide phosphate, reduced form (NADPH), magnesium chloride (MgCl2), and dimethyl sulfoxide (DMSO) are available from Sigma-Aldrich.
7.5 mM stock solutions of test compound 102 as well as of NS11394 were prepared in DMSO. The 7.5 mM stock solutions were diluted to 12.5 in acetonitrile (ACN). The 20 mg/mL human liver microsomes were diluted to 2.5 mg/mL in 0.1 M potassium phosphate buffer, pH 7.4, containing 3 mM MgCl2. The diluted microsomes were added to wells of a 96-well deep-well polypropylene plate in triplicate. A […] aliquot of the 12.5 test compound 102 was added to the microsomes and the mixture was pre-warmed for 10 minutes. Reactions were initiated by addition of pre-warmed NADPH solution. The final reaction volume was 0.5 mL and contained 2.0 mg/mL human liver microsomes, 0.25 test compound, and 2 mM NADPH in 0.1 M potassium phosphate buffer, pH 7.4, and 3 mM MgCl2. The reaction mixtures were incubated at 37° C., and […] aliquots were removed at 0, 5, 10, 20, and 30 minutes and added to shallow-well 96-well plates which contain […] of ice-cold ACN with internal standard to stop the reactions. The plates were stored at 4° C. for 20 minutes after which […] of water was added to the wells of the plate before centrifugation to pellet precipitated proteins. Supernatants were transferred to another 96-well plate and analyzed for amounts of parent remaining by LC-MS/MS using an AB SCIEX QTRAP® 5500. Testing was done in triplicate.
The in vitro t1/2s for test compounds were calculated from the slopes of the linear regression of % parent remaining (ln) vs incubation time relationship: in vitro t1/2=0.693/k k=−[slope of linear regression of % parent remaining (ln) vs incubation time]. Data analysis was performed using Microsoft Excel Software.
The testing was done in triplicate and the values shown in the table reflect the average of 3 experiments. […]
Background: Liver microsomes are a subcellular fraction often used to study metabolism.

Another series relates to rodent anxiety models. The following applies: in vivo; cited from earlier work.
For a further series, the target named is T1, GABAA α3 receptors (Homo sapiens, UniProt P18507+P34903).
T1 sequence (P34903 29-492): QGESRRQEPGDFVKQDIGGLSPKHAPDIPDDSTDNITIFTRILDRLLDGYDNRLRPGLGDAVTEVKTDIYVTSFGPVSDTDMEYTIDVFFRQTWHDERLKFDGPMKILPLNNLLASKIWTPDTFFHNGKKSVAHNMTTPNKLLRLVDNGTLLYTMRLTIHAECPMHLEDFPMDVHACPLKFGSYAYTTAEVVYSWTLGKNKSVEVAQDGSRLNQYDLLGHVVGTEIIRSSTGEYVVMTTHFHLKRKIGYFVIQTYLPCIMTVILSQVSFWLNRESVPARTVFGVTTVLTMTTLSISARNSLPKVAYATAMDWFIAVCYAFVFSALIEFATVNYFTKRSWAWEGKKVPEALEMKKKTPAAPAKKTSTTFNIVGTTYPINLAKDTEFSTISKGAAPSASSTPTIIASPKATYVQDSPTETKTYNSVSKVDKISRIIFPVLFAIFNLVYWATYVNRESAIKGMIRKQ
T1 sequence (P18507 40-467 limits assumed): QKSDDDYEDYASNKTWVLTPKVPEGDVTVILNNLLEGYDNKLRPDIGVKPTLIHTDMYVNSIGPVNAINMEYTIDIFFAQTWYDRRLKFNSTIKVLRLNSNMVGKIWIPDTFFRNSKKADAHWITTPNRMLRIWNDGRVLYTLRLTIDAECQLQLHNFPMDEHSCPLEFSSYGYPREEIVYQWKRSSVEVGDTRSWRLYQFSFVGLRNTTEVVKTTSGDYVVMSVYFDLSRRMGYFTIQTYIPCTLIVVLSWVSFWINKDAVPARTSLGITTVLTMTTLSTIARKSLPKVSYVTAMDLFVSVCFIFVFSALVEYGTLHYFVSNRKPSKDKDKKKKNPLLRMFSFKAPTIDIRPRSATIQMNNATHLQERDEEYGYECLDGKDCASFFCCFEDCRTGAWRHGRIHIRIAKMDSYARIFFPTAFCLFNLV
T1 sequence (P47870 25-512 partner limits assumed): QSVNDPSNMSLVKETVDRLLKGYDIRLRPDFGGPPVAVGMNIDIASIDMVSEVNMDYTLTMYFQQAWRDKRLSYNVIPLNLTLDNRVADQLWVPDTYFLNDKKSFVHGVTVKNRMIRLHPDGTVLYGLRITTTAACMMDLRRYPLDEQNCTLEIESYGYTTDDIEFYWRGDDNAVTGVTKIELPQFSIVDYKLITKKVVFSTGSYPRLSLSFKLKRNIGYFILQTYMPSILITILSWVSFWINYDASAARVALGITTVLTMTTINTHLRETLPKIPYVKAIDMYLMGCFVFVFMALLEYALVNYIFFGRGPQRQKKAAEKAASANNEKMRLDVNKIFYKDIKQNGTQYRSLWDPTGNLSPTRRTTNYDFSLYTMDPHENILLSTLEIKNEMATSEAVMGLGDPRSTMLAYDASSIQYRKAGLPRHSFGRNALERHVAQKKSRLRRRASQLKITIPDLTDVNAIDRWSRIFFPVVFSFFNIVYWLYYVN
As to conditions: cited from earlier work.

The mark [3] stands for this setting: animal models, oral administration.

In the case of `CC(C)(O)c1ccc2c(c1)ncn2-c1cccc(-c2ccccc2C#N)c1` [NS11394, 3′-[5-(1-hydroxy-1-methylethyl)-1H-benzimidazol-1-yl]biphenyl-2-carbonitrile], in series [1] (setting [3]), the “reversal of inflammatory and neuropathic pain-like behaviors” value was “completely reverse”; the tolerability result is recorded as “well tolerated”. Moreover, the dependence issues result in series [1] (in vivo) is “No dependence issues were observed”. For the same compound, in series [2], the “% Parent Remaining (30 min) Ave ± SD” value was 77 ± 3.7%. Besides, the half-life in series [2] (human, human liver microsomes, pH 7.4, in vitro t1/2 from linear regression of ln % parent remaining vs incubation time, NC = not calculable due to <20% metabolism in HLM, read-out: t1/2 (min) Ave ± SD) is 95 ± 35 min. For the same compound, the “efficacy in rodent anxiety models” value in the series on rodent anxiety models was “potent and highly effective”. The “efficacy at GABAA α3 receptors” value on GABAA α3 receptors is recorded as “high efficacy”.
`[2H]C([2H])([2H])C(O)(c1ccc2c(c1)ncn2-c1cccc(-c2ccccc2C#N)c1)C([2H])([2H])[2H]` [Compound 102, 3′-(5-(2-Hydroxy-1,1,1,3,3,3-d6-propan-2-yl)-1H-benzo[d]imidazol-1-yl)biphenyl-2-carbonitrile]: in series [2], the “% Parent Remaining (30 min) Ave ± SD” value came to 101 ± 8.7%.
